# Like-named read-outs stand apart in the source and are kept apart here.
# Tests used:
# Assay type in all cases: biochemical
# [1] = target: T1, NRH:quinone oxidoreductase 2 (NQO2) (Homo sapiens, UniProt P16083); assay: NRH-dependent inactivation of rhNQO2; conditions: read-out: rhNQO2 inhibition at 1μM ^a
# T1 sequence (P16083 1-231): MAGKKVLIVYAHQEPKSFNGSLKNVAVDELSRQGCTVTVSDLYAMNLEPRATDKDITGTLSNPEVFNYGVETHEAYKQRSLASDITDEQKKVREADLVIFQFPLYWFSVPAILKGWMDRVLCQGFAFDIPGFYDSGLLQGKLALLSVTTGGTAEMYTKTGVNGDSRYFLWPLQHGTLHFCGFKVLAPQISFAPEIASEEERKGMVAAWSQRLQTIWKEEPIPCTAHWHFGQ
# [2] = target: T1, NRH:quinone oxidoreductase 2 (NQO2); assay: NRH-dependent inactivation of rhNQO2; conditions: read-out: rhNQO2 inhibition at 1μM ^a; remark: listed apart in the source
# [3] = target: T1, NRH:quinone oxidoreductase 2 (NQO2); assay: rhNQO2 resazurin reduction, 96-well fluorescence assay
# [4] = target: T1, NRH:quinone oxidoreductase 2 (NQO2); assay: NRH-dependent inactivation of rhNQO2; conditions: read-out: rhNQO2 inhibition at 1μM ^a; remark: listed apart in the source
SMILES,"rhNQO2 resazurin reduction, 96-well fluorescence assay [3]",other results
"Cc1c(COc2c(F)cc(F)cc2F)c2c(n1C)C(=O)C=C(NCCCCN)C2=O [compound 2, 5-(4-aminobutyl)amino-1,2-dimethyl-3-[(2,4,6-trifluorophenoxy)methyl]indole-4,7-dione]",,inhibition at 1 µM [1]: 96%
"Cc1c(COc2ccc([N+](=O)[O-])cc2)c2c(n1C)C(=O)C=C(NCCCCN)C2=O [compound 1, 5-(4-aminobutyl)amino-1,2-dimethyl-3-[(4-nitrophenoxy)methyl]indole-4,7-dione]",,inhibition at 1 µM [2]: 96%
O=c1c(O)c(-c2ccc(O)c(O)c2)oc2cc(O)cc(O)c12 [quercetin],"quercetin, imatinib, resveratrol, chloroquine, and melatonin for their ability to inhibit rhNQO2 activity in a cell-free system",
Cc1ccc(NC(=O)c2ccc(CN3CCN(C)CC3)cc2)cc1Nc1nccc(-c2cccnc2)n1 [imatinib],"quercetin, imatinib, resveratrol, chloroquine, and melatonin for their ability to inhibit rhNQO2 activity in a cell-free system",
"Cc1c(COc2c(F)cc(F)cc2F)c2c(n1C)C(=O)C(NCCCCN)=CC2=O [compound 3, 6-(4-aminobutyl)amino-1,2-dimethyl-3-[(2,4,6-trifluorophenoxy)methyl]indole-4,7-dione]",,inhibition at 1 µM [4]: 33%
CCN(CC)CCCC(C)Nc1ccnc2cc(Cl)ccc12 (stereo not shown) [chloroquine],"quercetin, imatinib, resveratrol, chloroquine, and melatonin for their ability to inhibit rhNQO2 activity in a cell-free system",
Oc1ccc(/C=C/c2cc(O)cc(O)c2)cc1 [resveratrol],"quercetin, imatinib, resveratrol, chloroquine, and melatonin for their ability to inhibit rhNQO2 activity in a cell-free system",
